Source: ChEMBL document CHEMBL1629546 (Antimicrob Agents Chemother, 2008)
Values after ≈ are worked out from the molar mass of the structure shown. Active and inactive are the calls of the source. No cut-off for these calls is given here.

Columns and labels:
Bacillus anthracis [1] = conditions: in vivo
Bacillus anthracis [2] = test: Antimicrobial activity against Bacillus anthracis infected in in vitro hollow fiber PK/PD model assessed as bacterial killing at 600 mg administered once every 24 hrs for 15 days; assay type: functional, organism-based
Bacillus anthracis [3] = test: Antimicrobial activity against Bacillus anthracis infected in in vitro hollow fiber PK/PD model assessed as bacterial killing at 500 mg administered once every 24 hrs for 15 days; assay type: functional, organism-based
Bacillus anthracis [4] = test: Antimicrobial activity against Bacillus anthracis infected in in vitro hollow fiber PK/PD model assessed as cell killing at 300 mg administered once every 24 hrs; assay type: functional, organism-based
Bacillus anthracis [5] = conditions: in vivo, 24 h
Bacillus anthracis [6] = conditions: in vivo; remark: listed apart in the source
Bacillus anthracis [7] = conditions: in vivo; remark: listed apart in the source
Bacillus anthracis [8] = test: Antimicrobial activity against Bacillus anthracis infected in in vitro hollow fiber PK/PD model assessed as bacterial regrowth at 200 mg administered once every 24 hrs; assay type: functional, organism-based
Bacillus anthracis [9] = conditions: in vivo; remark: listed apart in the source
Bacillus anthracis [10] = test: Antimicrobial activity against Bacillus anthracis infected in in vitro hollow fiber PK/PD model assessed as prevention of bacterial regrowth at 700 mg administered once every 24 hrs; assay type: functional, organism-based
Bacillus anthracis [11] = conditions: in vivo, 24 h; remark: listed apart in the source
Bacillus anthracis [12] = conditions: in vivo; remark: listed apart in the source
Bacillus anthracis [13] = test: Antimicrobial activity against Bacillus anthracis infected in in vitro hollow fiber PK/PD model assessed as bacterial regrowth at 500 mg administered once every 24 hrs; assay type: functional, organism-based
Bacillus anthracis [14] = test: Antimicrobial activity against Bacillus anthracis infected in in vitro hollow fiber PK/PD model assessed as bacterial killing at 800 mg administered once every 24 hrs; assay type: functional, organism-based
Bacillus anthracis [15] = conditions: in vivo, 24 h; remark: listed apart in the source
Bacillus anthracis [16] = conditions: in vivo, 24 h; remark: listed apart in the source
Bacillus anthracis [17] = conditions: in vivo, 24 h; remark: listed apart in the source
Bacillus anthracis [18] = conditions: in vivo, 24 h; remark: listed apart in the source
Bacillus anthracis [19] = conditions: in vivo, 24 h; remark: listed apart in the source
Bacillus anthracis [20] = test: Antimicrobial activity against Bacillus anthracis infected in in vitro hollow fiber PK/PD model assessed as bacterial regrowth at 100 mg administered once every 24 hrs; assay type: functional, organism-based
Bacillus anthracis [21] = conditions: in vivo; remark: listed apart in the source
Bacillus anthracis [22] = conditions: in vivo, 24 h; remark: listed apart in the source
Bacillus anthracis [23] = test: Antimicrobial activity against Bacillus anthracis infected in in vitro hollow fiber PK/PD model assessed as cell killing at 800 mg administered as 2 divided doses every 12 hrs; assay type: functional, organism-based
Bacillus anthracis [24] = test: Antimicrobial activity against Bacillus anthracis infected in in vitro hollow fiber PK/PD model assessed as cell killing at 200 mg administered once every 24 hrs; assay type: functional, organism-based
Bacillus anthracis [25] = conditions: in vivo, 24 h; remark: listed apart in the source
Bacillus anthracis [26] = test: Antimicrobial activity against Bacillus anthracis infected in in vitro hollow fiber PK/PD model assessed as bacterial regrowth at 300 mg administered once every 24 hrs; assay type: functional, organism-based
Bacillus anthracis [27] = conditions: in vivo, 24 h; remark: listed apart in the source
Bacillus anthracis [28] = conditions: in vivo; remark: listed apart in the source
Bacillus anthracis [29] = conditions: in vivo; remark: listed apart in the source
Bacillus anthracis [30] = test: Antimicrobial activity against Bacillus anthracis infected in in vitro hollow fiber PK/PD model assessed as bacterial regrowth at 600 mg administered once every 24 hrs; assay type: functional, organism-based
Bacillus anthracis [31] = conditions: in vivo, 24 h; remark: listed apart in the source
Bacillus anthracis [32] = test: Antimicrobial activity against Bacillus anthracis infected in in vitro hollow fiber PK/PD model assessed as cell killing at 800 mg administered once every 24 hrs; assay type: functional, organism-based
Bacillus anthracis [33] = conditions: in vivo, 24 h; remark: listed apart in the source
Bacillus anthracis [34] = conditions: in vivo; remark: listed apart in the source
Bacillus anthracis [35] = conditions: in vivo; remark: listed apart in the source
Bacillus anthracis [36] = test: Antimicrobial activity against wild-type Bacillus anthracis; assay type: functional
Bacillus anthracis [37] = test: Antimicrobial activity against Bacillus anthracis infected in in vitro hollow fiber PK/PD model assessed as bacterial regrowth at 400 mg administered once every 24 hrs; assay type: functional, organism-based
Bacillus anthracis [38] = test: Antimicrobial activity against Bacillus anthracis infected in in vitro hollow fiber PK/PD model assessed as reduction in bacterial burden at 700 mg administered once every 24 hrs; assay type: functional, organism-based
Bacillus anthracis [39] = test: Antimicrobial activity against Bacillus anthracis infected in in vitro hollow fiber PK/PD model assessed as cell killing at 800 mg administered as 4 divided doses every 6 hrs; assay type: functional, organism-based
Bacillus anthracis [40] = test: Antimicrobial activity against Bacillus anthracis infected in in vitro hollow fiber PK/PD model assessed as cell killing at 400 mg administered once every 24 hrs; assay type: functional, organism-based
Bacillus anthracis [41] = conditions: in vivo, 24 h; remark: listed apart in the source
Bacillus anthracis [42] = test: Antimicrobial activity against Bacillus anthracis infected in in vitro hollow fiber PK/PD model assessed as prevention of bacterial regrowth at 800 mg administered once every 24 hrs; assay type: functional, organism-based

Q: Which fAUC (Bacillus anthracis [1]) does the source give for `CC(=O)NC[C@H]1CN(c2ccc(N3CCOCC3)c(F)c2)C(=O)O1` [LINEZOLID] here?
A: The fAUC was 71300 ng·h/mL.

Q: What about the Activity (Bacillus anthracis [2]) of the same compound?
A: The Activity was “Active”.

Q: And the Activity (Bacillus anthracis [3])?
A: The Activity was “Active”.

Q: What about the Activity (Bacillus anthracis [4]) of the same compound?
A: The Activity was “Active”.

Q: What about the fAUC (Bacillus anthracis [5]) of the same compound?
A: Its fAUC is 56283 ng·h/mL.

Q: What about the fAUC (Bacillus anthracis [6]) of the same compound?
A: Its fAUC is 56245 ng·h/mL.

Q: And the fAUC (Bacillus anthracis [7])?
A: Its fAUC is 74371 ng·h/mL.

Q: What about the Activity (Bacillus anthracis [8]) of the same compound?
A: The Activity was “Active”.

Q: And the fAUC (Bacillus anthracis [9])?
A: The fAUC was 90081 ng·h/mL.

Q: And the Activity (Bacillus anthracis [10])?
A: The Activity was “Active”.

Q: What about the fAUC (Bacillus anthracis [11]) of the same compound?
A: Its fAUC is 78508 ng·h/mL.

Q: What about the fAUC (Bacillus anthracis [12]) of the same compound?
A: Its fAUC is 115702 ng·h/mL.

Q: And the Activity (Bacillus anthracis [13])?
A: The Activity was “Active”.

Q: And the Activity (Bacillus anthracis [14])?
A: The Activity was “Active”.

Q: What about the fAUC (Bacillus anthracis [15]) of the same compound?
A: The fAUC was 91106 ng·h/mL.

Q: What about the fAUC (Bacillus anthracis [16]) of the same compound?
A: The fAUC was 90106 ng·h/mL.

Q: And the fAUC (Bacillus anthracis [17])?
A: Its fAUC is 71422 ng·h/mL.

Q: And the fAUC (Bacillus anthracis [18])?
A: Its fAUC is 78508 ng·h/mL.

Q: What about the fAUC (Bacillus anthracis [19]) of the same compound?
A: The fAUC was 33746 ng·h/mL.

Q: And the Activity (Bacillus anthracis [20])?
A: The Activity was “Active”.

Q: What about the fAUC (Bacillus anthracis [21]) of the same compound?
A: Its fAUC is 91216 ng·h/mL.

Q: What about the fAUC (Bacillus anthracis [22]) of the same compound?
A: The fAUC was 71422 ng·h/mL.

Q: What about the Activity (Bacillus anthracis [23]) of the same compound?
A: Its Activity is “Active”.

Q: What about the Activity (Bacillus anthracis [24]) of the same compound?
A: Its Activity is “Active”.

Q: What about the fAUC (Bacillus anthracis [25]) of the same compound?
A: The fAUC was 56283 ng·h/mL.

Q: What about the Activity (Bacillus anthracis [26]) of the same compound?
A: The Activity was “Active”.

Q: What about the fAUC (Bacillus anthracis [27]) of the same compound?
A: Its fAUC is 45553 ng·h/mL.

Q: And the fAUC (Bacillus anthracis [28])?
A: Its fAUC is 71540 ng·h/mL.

Q: What about the fAUC (Bacillus anthracis [29]) of the same compound?
A: Its fAUC is 36244 ng·h/mL.

Q: And the Activity (Bacillus anthracis [30])?
A: Its Activity is “Active”.

Q: And the fAUC (Bacillus anthracis [31])?
A: Its fAUC is 11249 ng·h/mL.

Q: And the Activity (Bacillus anthracis [32])?
A: Its Activity is “Active”.

Q: And the fAUC (Bacillus anthracis [33])?
A: The fAUC was 22498 ng·h/mL.

Q: And the fAUC (Bacillus anthracis [34])?
A: The fAUC was 56258 ng·h/mL.

Q: What about the fAUC (Bacillus anthracis [35]) of the same compound?
A: Its fAUC is 91284 ng·h/mL.

Q: What about the MIC (Bacillus anthracis [36]) of the same compound?
A: The MIC was 3 µg/mL (≈ 8.89 µM).

Q: What about the Activity (Bacillus anthracis [37]) of the same compound?
A: The Activity was “Active”.

Q: And the Activity (Bacillus anthracis [38])?
A: Its Activity is “Active”.

Q: What about the Activity (Bacillus anthracis [39]) of the same compound?
A: The Activity was “Active”.

Q: What about the Activity (Bacillus anthracis [40]) of the same compound?
A: Its Activity is “Active”.

Q: What about the fAUC (Bacillus anthracis [41]) of the same compound?
A: The fAUC was 91106 ng·h/mL.

Q: And the Activity (Bacillus anthracis [42])?
A: Its Activity is “Active”.

Q: `O=C(O)c1cn(C2CC2)c2cc(N3CCNCC3)c(F)cc2c1=O` [CIPROFLOXACIN] was tested. Which fAUC (Bacillus anthracis [9]) did it give?
A: Its fAUC is 22356 ng·h/mL.
